Measured values taken from PubChem BioAssay (NCI).
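Each compound was tested at five concentrations against cells in 96-well plates for 48 hours. GI50: concentration for 50% inhibition of growth. TGI denotes the concentration required for complete inhibition of growth.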

Columns and labels:
Assay in all cases: NCI-60 cell line screen, 48 h
[1] = tested on: NCI-H522 lung
[2] = tested on: UO-31 renal
[3] = tested on: SK-OV-3 ovarian
[4] = tested on: SNB-19 CNS
[5] = tested on: M14 melanoma
[6] = tested on: IGROV1 ovarian
[7] = tested on: OVCAR-3 ovarian
[8] = tested on: CCRF-CEM leukemia
[9] = tested on: HS 578T breast
[10] = tested on: HOP-92 NSCLC

Structure (SMILES)	GI50 [1]	TGI [1]	GI50 [2]	TGI [2]	GI50 [3]	TGI [3]	GI50 [4]	TGI [4]	GI50 [5]	TGI [5]	GI50 [6]	TGI [6]	GI50 [7]	TGI [7]	GI50 [8]	TGI [8]	GI50 [9]	TGI [9]	GI50 [10]	TGI [10]
O=C(Nc1cccc2[nH]c(C(F)(F)F)nc12)c1cc(Cl)ccc1Cl	2.27 µM	6.2 µM	2.78 µM	11.3 µM	2.21 µM	6.06 µM	3.72 µM	> 100 µM	3.32 µM	16.3 µM	6.04 µM	> 100 µM	3.4 µM	10.3 µM	3.16 µM	46.8 µM	2.91 µM	12.9 µM	2.09 µM	6.72 µM
C=CC(C)(C)n1cc(C2=C(O)C(=O)C(c3cn(C(C)(C)C=C)c4ccccc34)=C(O)C2=O)c2ccccc21	–	13 µM	–	4.27 µM	–	10.4 µM	–	7.38 µM	–	8.5 µM	–	7.15 µM	–	4.48 µM	–	> 100 µM	–	5.11 µM	–	18.9 µM
COc1ccc2c(c1)C(=O)/C(=C/c1cccc(OCC(=O)Nc3nc(C)c(C)s3)c1)O2	0.0517 µM	0.107 µM	0.0222 µM	0.0378 µM	12.8 µM	25.6 µM	12.2 µM	25.7 µM	0.187 µM	0.426 µM	–	–	0.0179 µM	0.0366 µM	0.0168 µM	0.0337 µM	2.94 µM	–	0.0186 µM	0.0562 µM
FC(F)(F)c1ccc(-c2nn3ncccc3c2-c2ccnc(Nc3ccc4c(c3)OCCO4)n2)cc1	8.79 µM	> 25 µM	3 µM	> 21.9 µM	9.08 µM	> 25 µM	> 25 µM	> 25 µM	8.92 µM	> 25 µM	5.19 µM	> 25 µM	11.6 µM	> 25 µM	10.8 µM	> 25 µM	10.9 µM	> 25 µM	2.02 µM	21.9 µM
O=C(NN1C(=O)CSC1c1cccc(Cl)c1)C(O)c1ccccc1 (centres undefined)	67.9 µM	> 100 µM	75.5 µM	> 100 µM	> 100 µM	> 100 µM	> 100 µM	> 100 µM	> 100 µM	> 100 µM	> 100 µM	> 100 µM	33.8 µM	> 100 µM	> 100 µM	> 100 µM	> 100 µM	> 100 µM	> 100 µM	> 100 µM
Cc1ccc(S(=O)(=O)c2nc(-c3ccccc3)oc2S(C)(=O)=O)cc1	1.52 µM	3.3 µM	1.48 µM	2.81 µM	15.9 µM	29.3 µM	11.2 µM	23.2 µM	1.74 µM	3.63 µM	–	–	1.86 µM	3.35 µM	2.83 µM	8.16 µM	10.1 µM	43.8 µM	1.84 µM	3.48 µM
CN(C)N1C(=O)SCC(c2ccccc2)(c2ccccc2)C1=O	–	> 100 µM	–	> 100 µM	–	> 100 µM	–	> 100 µM	–	> 100 µM	–	–	–	> 100 µM	–	> 100 µM	–	> 100 µM	–	> 100 µM
